Data: paper PMC4535450, “Two enzymes with redundant fructose bisphosphatase activity sustain gluconeogenesis and virulence in Mycobacterium tuberculosis” (Nature Communications, 2015)

Molecular target: GLPX (Rv1099c) (Mycobacterium tuberculosis, UniProt P9WN21)
Assay type: biochemical

## O=P(O)(O)OC[C@H]1OC(O)(COP(=O)(O)O)[C@@H](O)[C@@H]1O (stereo partly shown) [fructose 1,6-bisphosphate]
  coupled spectrophotometric assay (phosphoglucoisomerase / G6P dehydrogenase, NAD): Expression of GLPX in ΔglpXΔgpm2 provided lithium-sensitive FBPase activity
